From patent publication US9102648B1, “Bioavailable diacylhydrazine ligands for modulating the expression of exogenous genes via an ecdysone receptor complex” (Intrexon Corporation, priority 2003, dated 2015)
Where two headings read alike, the source gives them in different places.

How the values were obtained:
[1] = target: T1, Bombyx mori EcR (VP16 fusion, CVBE switch construct) (Bombyx mori, UniProt P49881); assay: Z3 Assay (HEK-293 cells with CVBE and 6XEcRE LacZ, β-galactosidase reporter); conditions: for Fold Induction, Z3 Assay, 3.3 uM: 3.3 uM ligand; for Fold Induction, Z3 Assay, 3.3 uM / Fold Induction, Z3 Assay, 33 uM: ligand treated / DMSO treated cells; for Fold Induction, Z3 Assay, 33 uM: 33 uM ligand; for Z3 assay Rel Max FI: maximum fold induction at any concentration relative to that of GS-E ligand
T1 sequence (P49881 86-606): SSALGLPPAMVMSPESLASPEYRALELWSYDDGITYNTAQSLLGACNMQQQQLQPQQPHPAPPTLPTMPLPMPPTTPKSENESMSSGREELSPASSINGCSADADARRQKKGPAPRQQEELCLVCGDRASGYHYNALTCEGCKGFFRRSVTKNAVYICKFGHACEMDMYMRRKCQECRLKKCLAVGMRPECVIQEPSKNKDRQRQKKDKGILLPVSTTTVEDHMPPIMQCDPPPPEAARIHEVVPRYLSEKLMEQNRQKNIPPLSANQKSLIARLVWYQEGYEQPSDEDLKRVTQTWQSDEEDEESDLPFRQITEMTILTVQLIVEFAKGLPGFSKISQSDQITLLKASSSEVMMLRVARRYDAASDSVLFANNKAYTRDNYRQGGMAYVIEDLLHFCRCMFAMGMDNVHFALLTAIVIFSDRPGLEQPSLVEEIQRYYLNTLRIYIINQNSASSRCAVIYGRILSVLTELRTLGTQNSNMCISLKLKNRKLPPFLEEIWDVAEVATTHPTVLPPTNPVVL
T1 sequence (P19793 1-462 partner): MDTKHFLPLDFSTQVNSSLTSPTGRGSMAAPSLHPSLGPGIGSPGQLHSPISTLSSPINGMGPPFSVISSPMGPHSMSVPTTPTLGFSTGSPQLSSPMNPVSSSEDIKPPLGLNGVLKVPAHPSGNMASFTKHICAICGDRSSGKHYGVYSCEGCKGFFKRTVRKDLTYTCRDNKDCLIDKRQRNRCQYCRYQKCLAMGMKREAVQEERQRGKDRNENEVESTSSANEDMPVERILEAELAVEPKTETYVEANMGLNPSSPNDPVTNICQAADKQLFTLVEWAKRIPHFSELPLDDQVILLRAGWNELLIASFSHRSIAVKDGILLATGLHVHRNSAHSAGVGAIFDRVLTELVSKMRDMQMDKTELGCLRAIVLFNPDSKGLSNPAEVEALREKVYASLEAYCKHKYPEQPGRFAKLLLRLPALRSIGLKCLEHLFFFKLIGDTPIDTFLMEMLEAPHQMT
From the text: Dr. F. Gage provided a population of stably transformed cells containing CVBE and 6XEcRE as described in Suhr, S. T., Gil, E. B., Senut M. C., Gage, F. H. (1998) Proc. Natl. Acad. Sci. USA 95, 7999-804. Human 293 kidney cells, also referred to as HEK-293 cells, were sequentially infected with retroviral vectors encoding first the switch construct CVBE, and subsequently the reporter construct 6XEcRE Lac Z. The switch construct contained the coding sequence for amino acids 26-546 from Bombyx mori EcR (BE) (Iatrou) inserted in frame and downstream of the VP16 transactivation domain (VBE). A synthetic ATG start codon was placed under the control of cytomegalovirus (CVBE) immediate early promoter and flanked by long terminal repeats (LTR). The reporter construct contained six copies of the ecdysone response element (EcRE) binding site placed upstream of LacZ and flanked on both sides with LTR sequences (6XEcRE).
Dilution cloning was used to isolate individual clones. Clones were selected using 450 ug/mL G418 and 100 ng/mL puromycin. Individual clones were evaluated based on their response in the presence and absence of test ligands.
Human 293 kidney cells stably transformed with CVBE and 6XEcRE LacZ were maintained in Minimum Essential Medium (Mediates, 10-010-CV) containing 10% FBS (Life Technologies, 26140-087), […] G418 (Mediates, 30-234-CR), and […] (Sigma, P-7255), at 37° C. in an atmosphere containing 5% CO2 and were subculture when they reached 75% confluence.
Z3 cells were seeded into 96-well tissue culture plates at a concentration of 2.5×10^3 cells per well and incubated at 37° C. in 5% CO2 for twenty-four hours. Stock solutions of ligands were prepared in DMSO. Ligand stock solutions were diluted 100 fold in media and 50 μL of this diluted ligand solution ([…]) was added to cells. The final concentration of DMSO was maintained at 0.03% in both controls and treatments.
Reporter gene expression was evaluated 48 hours after treatment of cells, β-galactosidase activity was measured using Gal Screen™ bioluminescent reporter gene assay system from Tropix (GSY1000). Fold induction activities were calculated by dividing relative light units (“RLU”) in ligand treated cells with RLU in DMSO treated cells. Luminescence was detected at room temperature using a Dynex MLX microtiter plate luminometer.
Flanking both constructs are long terminal repeats, G418 and puromycin are selectable markers, CMV is the cytomegalovirus promoter, VBE is coding sequence for amino acids 26-546 from Bombyx mori EcR inserted downstream of the VP16 transactivation domain, 6×EcRE is six copies of the ecdysone response element, lacZ encodes for the reporter enzyme β-galactosidase.
(§1) Each assay was conducted in two separate wells, and the two values were averaged. Fold inductions were calculated by dividing relative light units (“RLU”) in ligand treated cells with RLU in DMSO treated cells. EC50s were calculated from dose response data using a three-parameter logistic model.

[2] = target: GAL4 DBD-CfEcR(DEF)/VP16AD-MmRXRE (Choristoneura fumiferana, UniProt O77240); assay: 13B3 Assay (CHO stable cell line, luciferase reporter); conditions: for Fold Induction, 13B3 Assay, 33 uM: 33 uM ligand; for Fold Induction, 13B3 Assay, 33 uM / Fold Induction, 13B3 Assay, 3.3 uM: RLU ligand treated / RLU DMSO treated cells; for Fold Induction, 13B3 Assay, 3.3 uM: 3.3 uM ligand; for 13B3 assay Rel Max FI: maximum fold induction at any concentration relative to that of GS-E ligand, CHO 13B3 cells; for fold induction at 33 µM: read-out: Fold Induction, 13B3 Assay, 33 uM
From the text: GAL4 DBD-CfEcR(DEF)/VP16AD-MmRXRE:
The wild-type D, E, and F domains from spruce budworm Choristoneura fumiferana EcR (“CfEcR-DEF”; SEQ ID NO: 1) were fused to a GALA DNA binding domain (“Gal4DBD1-147”; SEQ ID NO: 2) and placed under the control of the SV40e promoter of pM vector (PT3119-5, Clontech, Palo Alto, Calif.). The D and E domains from Mus Musculus RXR (“MmRXR-DE”; SEQ ID NO: 11) were fused to the transactivation domain from VP16 (“VP16AD”; SEQ ID NO: 6) and placed under the control of the SV40e promoter of the pVP16 vector (PT3127-5, Clontech, Palo Alto, Calif.).
CHO cells were transiently transfected with transcription cassettes for GAL4 DBD-CJEcR(DEF) and for VP16AD-MmRXRE controlled by SV40e promoters. Stably transfected cells were selected using Hygromycin. Individually isolated CHO cell clones were transiently transfected with a GALA RE-luciferase reporter (pFR-Luc, Stratagene, La Jolla, Calif.). The 13B3 clone was selected using Zeocin.
(§2) Cells were trypsinized and diluted to a concentration of 2.5×10^4 cells mL. 100 μL of cell suspension was placed in each well of a 96 well plate and incubated at 37° C. under 5% CO2 for 24 h. Ligand stock solutions were prepared in DMSO and diluted 300 fold for all treatments. Dose response testing consisted of 8 concentrations ranging from 33 μM to 0.01 μM.
(§3) Luciferase reporter gene expression was measured 48 h after cell treatment using Bright-Glo™ Luciferase Assay System from Promega (E2650). Luminescence was detected at room temperature using a Dynex MLX microtiter plate luminometer.
as §1

[3] = target: GAL4 DBD (1-147)-CfEcR(DEF)/VP16AD-βRXREF-LmUSPEF (Choristoneura fumiferana, UniProt O77240); assay: cell-based
From the text: GAL4 DBD (1-147)-CfEcR(DEF)/VP16AD-βRXREF-LmUSPEF:
The wild-type D, E, and F domains from spruce budworm Choristoneura fumiferana EcR (“CfEcR-DEF”; SEQ ID NO: 1) were fused to a GAL4 DNA binding domain (“Gal4DBD1-147”; SEQ ID NO: 2) and placed under the control of a phosphoglycerate kinase promoter (“PGK”; SEQ ID NO: 3). Helices 1 through 8 of the EF domains from Homo sapiens RXRβ (“HsRXRβ-EF”; nucleotides 1-465 of SEQ ID NO: 4) and helices 9 through 12 of the EF domains of Locusta migratoria Ultraspiracle Protein (“LmUSP-EF”; nucleotides 403-630 of SEQ ID NO: 5) were fused to the transactivation domain from VP16 (“VP16AD”; SEQ ID NO: 6) and placed under the control of an elongation factor-1α promoter (“EF-1α”; SEQ ID NO: 7). Five consensus GAL4 response element binding sites (“5XGAL4RE”; comprising 5 copies of a GAL4RE comprising SEQ ID NO: 8) were fused to a synthetic TATA minimal promoter (SEQ ID NO: 9) and placed upstream of the luciferase reporter gene (SEQ ID NO: 10).
CHO cells were transiently transfected with transcription cassettes for GAL4 DBD (1-147) CJEcR(DEF) and for VP16AD βRXREF-LmUSPEF controlled by ubiquitously active cellular promoters (PGK and EF-la, respectively) on a single plasmid. Stably transfected cells were selected by Zeocin resistance. Individually isolated CHO cell clones were transiently transfected with a GAL4 RE-luciferase reporter (pFR Luc). 27-63 clone was selected using Hygromycin.
as §2, with “[…]” for “33 μM”
as §3, §1

[4] = read-out: Z3 assay EC50, HEK-293 Z3 cells, β-galactosidase reporter, average of two wells
[5] = read-out: 13B3 EC50, CHO 13B3 stable cell line, luciferase reporter, 48 h, average of two wells

Row | SMILES | Fold Induction, Z3 Assay, 3.3 uM ([1]; average of two wells) | Fold Induction, Z3 Assay, 33 uM ([1]; average of two wells) | Z3 assay Rel Max FI ([1]; HEK-293 Z3 cells) | EC50 [1, 4] | Fold Induction, 13B3 Assay, 33 uM ([2]; average of two wells) | Fold Induction, 13B3 Assay, 3.3 uM ([2]; average of two wells) | 13B3 assay Rel Max FI [2] | EC50 [2, 5] | further results
1 | Cc1cc(C)cc(C(=O)N(NC(=O)c2ccc3c(c2)OC(C)CO3)C(C)(C)C)c1 (racemic) [RG-101509] | 1303 | 328 | 0.882 | 1180 nM | 1144 |  |  |  | 
2 | CCc1c(OC)cccc1C(=O)NN(C(=O)c1cc(OC)c(C)c(OC)c1)C(C)(C)C#N [RG-115690] | 571 |  | 0.998 | 209 nM |  | 930 | 1.181 | 632 nM | 
3 | Cc1c(C(=O)NN(C(=O)c2cc(Cl)cc(Cl)c2)C(C)(C)C)cccc1N(C)C [RG-101316] | 1045 | 350 | 0.896 | 1580 nM | 1280 |  |  |  | 
4 | CCc1c(OC)cccc1C(=O)NN(C(=O)c1cc(C)cc(C)c1)C(C)(C)COC [RG-115006, 2-ethyl-3-methoxy-benzoic acid N′-(3,5-dimethyl-benzoyl)-N′-(2-methoxy-1,1-dimethyl-ethyl)-hydrazide] |  |  | 1.031 |  |  |  | 0.890 |  | EC50 [1]: 275 nM; fold induction at 3.3 µM ([1]; HEK293, read-out: Fold Induction, Z3 Assay, 3.3 uM): 415; fold induction at 33 µM ([1]; HEK293, read-out: Fold Induction, Z3 Assay, 33 uM): 1070; EC50 [2]: 3500 nM; fold induction at 3.3 µM ([2]; read-out: Fold Induction, 13B3 Assay, 3.3 uM): 4180; fold induction at 33 µM [2]: 3150
5 | CCc1c(OC)cccc1C(=O)NN(C(=O)c1cccc(Br)c1)C(C)(C)C#N [RG-115648] |  |  | 0.182 | 21400 nM |  | 9 |  |  | 
6 | Cc1c(Cl)cccc1C(=O)NN(C(=O)c1cccc(Cl)c1)C(C)(C)C [RG-101202] | 195 | 1 |  | 1740 nM | 7 | 5 | 0.007 | 369 nM | 
7 | C=Cc1c(OC)cccc1C(=O)NN(C(=O)c1cc(F)c(Cl)cc1Cl)C(C)(C)C [RG-115534] | 168 | 249 | 0.463 | 2750 nM | 211 |  |  |  | 
8 | CCc1c(OC)cccc1C(=O)NN(C(=O)c1cccc(F)c1F)C(C)(C)C [RG-115627] | 378 | 362 | 0.840 | 813 nM | 10058 | 1291 | 0.854 | 921 nM | 
9 | CCc1c(C(=O)NN(C(=O)c2ccc(F)cc2)C(C)(C)C)ccc2c1OCOC2 [RG-100574] |  | 389 |  | 1120 nM |  |  |  |  | Fold Induction, 27-63 Assay, 3.3 uM ([3]; 3.3 uM ligand, RLU ligand treated / RLU DMSO treated cells, average of two wells): 151; Fold Induction, 27-63 Assay, 33 uM ([3]; 33 uM ligand, RLU ligand treated / RLU DMSO treated cells, average of two wells): 21; 27-63 assay Rel Max FI ([3]; maximum fold induction at any concentration relative to that of GS-E ligand, CHO 27-63 cells): 0.371; EC50 ([3]; read-out: 27-63 assay EC50, CHO 27-63 stable cell line, luciferase reporter, average of two wells): 4000 nM
10 | CCc1c(OC)cccc1C(=O)NN(C(=O)c1ccc2ncn(C(c3ccccc3)(c3ccccc3)c3ccccc3)c2c1)C(C)(C)C [RG-115718, 3-trityl-3H-benzoimidazole-5-carboxylic acid N-tert-butyl-N′-(2-ethyl-3-methoxy-benzoyl)-hydrazide] |  |  |  |  |  |  |  |  | fold induction at 33 µM [2]: 2
